{"source": "patent US20200016118A1", "about": "“HDAC INHIBITOR IN COMBINATION WITH VEGF/VEGFR INTERACTION FOR CANCER THERAPY BASED ON PLATELET COUNT” (4SC AG, priority 2017, published 2020)", "tested_on": "advanced HCC", "assay": "Phase I/II trial (Phase II part) of resminostat in combination with sorafenib versus sorafenib alone, first-line, overall survival by baseline platelet count", "assay_type": "in vivo, human", "procedure": "A Phase I/II trial investigating resminostat in the indication of hepatocellular cancer (HCC) was conducted. The study was an open-label, multi-center Phase I/II study in patients with advanced HCC previously untreated with systemic chemotherapy (first-line therapy) to determine the MTD and to evaluate safety and efficacy of resminostat in combination with sorafenib. The study was conducted in Japan and Korea. The main eligibility criteria included a performance status of ECOG 0-1, adequate hepatic, renal, cardiac and bone marrow function and a life expectancy of more than 12 weeks.\nIn the Phase II part, a total of 170 patients were enrolled. Patients were randomly allocated to either the combination group (86 patients) or the monotherapy group (84 patients) at the RD determined from phase I. Randomization was performed with the minimization method using the following 2 factors as stratification factors: study site; and vascular invasion (presence or absence). The trial is registered at www.clinicaltrials.jp (Identifier: JapicCTI-132124) and www.clinicalTrials.gov (NCT02400788). Overall Survival (OS) were evaluated by the Kaplan-Meier method. A point estimate of the hazard ratio was calculated for each subgroup categorized by baseline platelet level as well as the 95% confidence interval of the estimate.\nTreatment regimen: Mono group: A cycle was defined as 14 days. Sorafenib (800 mg) was given daily. Combination group: A cycle was defined as 14 days. Sorafenib (800 mg) was given daily. Resminostat (400 mg) was given daily on Days 1 to 5 and suspended on Days 6 to 14.\nBlood was collected into a blood collection tubes precharged with EDTA-2K and then immediately inverted 4-5 times to mix. The mixed sample was stored refrigerated for further analysis.\nPlatelet count analysis was conducted with the Sheath Flow DC Detection method (Sysmex, Kobe, Japan). A method is described in detail in WALTERS J., GARRITY P. (2000): Performance Evaluation of the Sysmex XE-2100 Hematology Analyzer; Laboratory Hematology 6: 83-92. […]", "data": [{"smiles": "CNC(=O)c1cc(Oc2ccc(NC(=O)Nc3ccc(Cl)c(C(F)(F)F)c3)cc2)ccn1", "note": "[sorafenib, 4-[4-[[4-chloro-3-(trifluoromethyl)phenyl]carbamoylamino]phenoxy]-N-methyl-pyridine-2-carboxamide]", "values": [{"measurement": "overall survival (OS), in words", "setting": "patients with platelet count of about 150000 platelets/μL or above compared to below about 150000 (FIG. 1)", "result": "shorter overall survival"}, {"measurement": "median overall survival (mOS)", "setting": "patients with platelet count ≥151×10^3/μL (median) at baseline", "result": 5.1, "unit": "months"}, {"measurement": "median overall survival (mOS)", "setting": "patients with platelet level below median (<151×10^3/μL)", "result": 17.5, "unit": "months"}]}]}
